In test [1] the test system is rabbits having received a dose of endotoxins equal to 12 EU/kg. The test is described as follows: Pyrogen test in rabbits: lowering of the body temperature increase caused by intravenously injected endotoxins. It is filed as in vivo, rabbit. The conditions noted are these: xylitol 1.5 g/kg, ASPEGIC 100 mg/kg where present; for Difference compared with the positive control of contamination (%): lowering of the endotoxin-induced temperature increase versus Batch 2, endotoxins 12 EU/kg i.v., significant when greater than 5%; for Temperature increase (° C.): mean temperature difference, 3 rabbits per batch, endotoxins 12 EU/kg intravenously. The text has this: Specifically, the pyrogen test in rabbits is the test described in the European Pharmacopoeia for verifying, in vivo, the apyrogenicity of certain molecules intended to be administered parenterally.
Thus, the applicant company, a producer of molecules intended to be administered parenterally, therefore used this test, which it has perfected, under the conditions described in the European Pharmacopoeia, in order to determine the body temperature-lowering effects of xylitol alone, and of xylitol combined with an antipyretic.
The experiment is carried out with batches of laboratory animals, in this instance here, rabbits.
The solutions to be injected are prepared in sterile water (water for injectable preparation—AGUETTANT).
The bottles of endotoxins (control standard Entotoxin or CSE—ENDOSAFE) contain 5 ml of endotoxins at 30 EU/ml with 120 ml of water for injectable preparation.
The contamination is calculated so as to observe a pyrogenic shock in the rabbit. This contamination is produced by intravenously injecting endotoxins in a proportion of 1.2 EU/ml, i.e. 12 EU/kg.
The antipyretic agent, in this instance aspirin, is prepared extemporaneously. 6.6 ml are added to 125 ml of endotoxins so as to obtain a dose equivalent to 100 mg/kg. The aspirin chosen is injectable ASPEGIC® (DL-lysine acetyl salicylate), manufactured by Laboratoires SYNTHELABO (LE PLESSIS ROBINSON), packed in proportion of 6 bottles of 2 g of powder and 6 vials of 5 ml of water for injectable preparation, for extemporaneous dissolution.
The xylitol is a batch of apyrogenic XYLISORB® manufactured by the applicant company. Apyrogenic dextrose monohydrate (marketed under the trademark LYCADEX® PF by the applicant company) is used as a control.
The rabbits are injected with a solution of xylitol at 150 g/l with water for injectable solution contaminated or not contaminated with the endotoxins. Five experiments are carried out with 3 rabbits per batch.

The subject of test [2] is healthy rabbit. As to conditions: intravenous administration; cited from earlier work.

For the compound `CC(=O)Oc1ccccc1C(=O)O` (racemic) [Batch 3, DL-lysine acetyl salicylate], in test [1], the “Difference compared with the positive control of contamination (%)” value was 46% and the “Temperature increase (° C.)” value was 1.57 °C.
In the case of `OC[C@@H](O)[C@H](O)[C@@H](O)CO` [Batch 4, xylitol], in test [1], the “Difference compared with the positive control of contamination (%)” value amounted to 7.5% and the “Temperature increase (° C.)” value stood at 2.73 °C. In addition, in test [2], the “effect on body temperature of the laboratory animal” value is “lowers the body temperature”.
In the case of methylephedrine, the “effect on body temperature of the laboratory animal” value in test [2] was “lowers the body temperature”.

These data come from patent US20060142254A1, “Antipyretic preparation containing xylitol” (ROQUETTE FRERES, priority 2001, published 2006).
